In patent US20250215105A1, “ANTI-CD39 ANTIBODY” (BrightPath Biotherapeutics Co., Ltd., priority 2022, published 2025):

Key:
[1] = tested on: human multiple myeloma-derived cell line MOLP-8; settings: day 24, last day of the study
Experimental: The human multiple myeloma-derived cell line MOLP-8 (DMSZ, ACC569) was subcutaneously transplanted (at 5×10^6 cells/mouse) into the right abdomen of each SCID mouse (C.B-17/Icr-scid/scidJcl, female, 7-week-old). On day 10 after transplantation, the mice were divided into groups based on tumor volume. Each antibody was administered in the doses listed in Table 3 twice a week for a total of seven doses starting on the day of grouping. Doxorubicin was administered twice a week for a total of 5 doses, starting 7 days after the grouping date. The tumor diameter and body weight were measured on day 24 after grouping. The tumor weight (n=5) data were analyzed using GraphPad Prism 9.2.0. One-way ANOVA and Tukey multiple comparisons test were used for statistical analysis. A significant difference was assumed when p**≤0.01.

[2] = tested on: A375 (malignant melanoma cancer cell line); assay: cancer cell growth inhibition test with Treg-removed PBMCs; type: cell-based, human; settings: PBMCs pre-treated with 10 μg/ml antibody for 5 days, co-culture 5 days
Experimental: Purchased healthy human PBMCs (Wako Pure Chemicals, 33000-10M) were seeded at 5×10^5 cells/well in a 96 well U-bottom plate and cultured in the presence of 100 IU/mL IL-2 (NIPRO, 87-890), 20 ng/mL IL-7 (PeproTech, 200-07), and each test antibody at 10 μg/ml for 5 days. Then, 15,000 cells/well of A375 (malignant melanoma cancer cell line) overexpressing CMV antigen and RFP were mixed with 45,000 cells/well of PBMCs prepared after 5 days of culture, and the mixture was co-cultured at 37° C. and 5% CO2 for 5 days. At this time, the medium used was RPMI-1640 (189-0202, Wako Pure Chemicals) supplemented with 10% Human Serum AB (100-512, H46X00K, Gemini Bio), 1 mM penicillin streptomycin (09367-34, Nacalai Tesque), 1 mM sodium pyruvate (11360070, Gibco), 10 mM HEPES (17557-9, Nacalai Tesque), 1% GlutaMAX (35050061, Thermo Fisher), and 0.01 mM 2-mercaptoethanol (21438-82, Nacalai Tesque). The number of A375 cells was then determined by measuring the fluorescence value of RFP while using a Varioskan LUX multimode microplate reader (Thermo Fisher Scientific). GraphPad Prism 9.2.0 was used for data analysis.

[3] = tested on: T cells in healthy human PBMCs; assay: effects on T cells in cultured healthy PBMCs (cell type analysis, Treg removal, cytotoxic T cell induction); type: cell-based; settings: healthy PBMCs cultured with antibody for 5 days
Experimental: Purchased healthy human PBMCs (33000-10, Wako Pure Chemicals) were seeded at 5×10^5 cells/well in a 96 well U-bottom plate and cultured in the presence of 100 IU/mL IL-2 (87-890, NIPRO) and 20 ng/mL IL-7 (200-07, PeproTech) for 5 or 6 days to induce Tregs. The medium was washed out and the cells were cultured in the presence of CMV peptide A02 (TS-0010-1c, MBL), 10 IU/mL IL-2, and 20 ng/mL IL-7 for 11 days to induce antigen-specific cytotoxic T cells. The medium used was RPMI-1640 (189-0202, Wako Pure Chemicals) supplemented with 10% Human Serum AB (100-512, H46X00K, Gemini Bio), 1 mM penicillin streptomycin (09367-34, Nacalai Tesque), 1 mM sodium pyruvate (11360070, Gibco), 10 mM HEPES (17557-9, Nacalai Tesque), 1% GlutaMAX (35050061, Thermo Fisher), and 0.01 mM 2-mercaptoethanol (21438-82, Nacalai Tesque).
FACSVerse (BD) was used for various cell type analyses. Cells were counted using CountBright™ Absolute Counting Beads (C36950, Invitrogen). GraphPad Prism 9.2.0 was used for data analysis.
Substantially the same method as described in the Section 21.1 above was used to check a change in the percentage of various CD39^hi-expressing T cells by each glycan-modified anti-CD39 antibody.

activated Tregs = assay: binding to activated Tregs (FACS); parameters: species or system human; settings: 10 μg/mL
Experimental: Purchased healthy human PBMCs (Wako Pure Chemicals, 33000-10M) were seeded at 2×10^5 cells/well in a 96 well U-bottom plate and cultured in the presence of 10 IU/mL IL-2 (NIPRO, 87-890) and 20 ng/mL IL-7 (PeproTech, 200-07) for 6 days. After 6 days, all the cells were collected and the Treg population was isolated using a CD4^+CD25^+CD127^dim/− Regulatory T Cell Isolation Kit II, human (Miltenyi, 130-094-775). Isolated Tregs were seeded at 2×10^4 cells/well in ab96 well U-bottom plate and stimulated for 6 days in the presence of 6×10^5 Dynabeads Human T-Activator CD3/CD28 (Gibco, DB11132-D), 10 IU/mL IL-2, and 20 ng/mL IL-7. The medium used was RPMI (Wako Pure Chemicals, 189-02025) supplemented with 10% Human Serum AB (Gemini Bio, 100-512, H46X00K), 1 mM penicillin streptomycin (Nacalai Tesque, 09367-34), 1 mM sodium pyruvate (Gibco, 11360070), 10 mM HEPES (Nacalai Tesque, 17557-94), GlutaMAX (Thermo Fisher, 35050061). 11360070), 10 mM HEPES (Nacalai Tesque, 17557-94), and GlutaMAX (Thermo Fisher, 35050061). After 6 days, Tregs were collected and analyzed for binding of each test antibody by using a FACSVerse. GraphPad Prism 9.2.0 was used for data analysis.

Compound	heart weight [1]	growth of human malignant melanoma A375 [2]	CD39^hiCD4+FoxP3+ Tregs and effector Tregs (Fr. II) [3]	ability of binding to activated Tregs (activated Tregs)
COc1cccc2c1C(=O)c1c(O)c3c(c(O)c1C2=O)C[C@@](O)(C(=O)CO)C[C@@H]3O[C@H]1C[C@H](N)[C@H](O)[C@H](C)O1 [doxorubicin]	decreased			
ipilimumab		no inhibitory effect	significant loss of only effector Tregs (Fr. II)	not strong
mogamulizumab			significant loss of only effector Tregs (Fr. II)	not strong
